Measurements taken from ChEMBL document CHEMBL1201862, “PubChem BioAssay data set” (2004).
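Where inhibition never reached the appropriate level, the endpoint shown equals the highest concentration tested. Otherwise, values were interpolated linearly from a five-concentration, 48-hour dose response in 96-well plates. The concentration for 50% growth inhibition is given as GI50.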 Calls of active or inactive are those of the source. No stated cut-off is given here; in the data, active = GI50 up to about 1.1 µM and inactive = higher.

How the values were obtained:
Experiment in all cases: inhibition of tumour cell growth, NCI panel, 48 h
UACC-62 = test system: UACC-62
LOX IMVI = test system: LOX IMVI
RPMI-8226 = test system: RPMI-8226
Hs-578T = test system: Hs-578T
ACHN = test system: ACHN
NCI-H23 = test system: NCI-H23
K562 = test system: K562
HT-29 = test system: HT-29
SF-295 = test system: SF-295
MDA-MB-435 = test system: MDA-MB-435
SK-MEL-28 = test system: SK-MEL-28
KM12 = test system: KM12
HCC 2998 = test system: HCC 2998
SK-MEL-2 = test system: SK-MEL-2
BT-549 = test system: BT-549
A549 = test system: A549
SW-620 = test system: SW-620
OVCAR-3 = test system: OVCAR-3
SNB-75 = test system: SNB-75

Measured: GI50

CSC1(SC)CCCCCCCCCCC1
inactive: UACC-62 46 µM | LOX IMVI 18.7 µM | RPMI-8226 78.5 µM | Hs-578T 43.1 µM | ACHN 34.2 µM | NCI-H23 68.9 µM | K562 32 µM | HT-29 31.7 µM | SF-295 37.3 µM | MDA-MB-435 38.9 µM | SK-MEL-28 44.9 µM | KM12 41.7 µM | HCC 2998 20.4 µM | SK-MEL-2 24 µM | BT-549 60.3 µM | A549 31.6 µM | SW-620 44.6 µM | OVCAR-3 27.8 µM

CC1C2(C)OCC(C#N)(C(=N)O2)C1(C#N)C#N (centres undefined)
inactive: UACC-62 24.9 µM | LOX IMVI 17.7 µM | Hs-578T 17.9 µM | SNB-75 96.8 µM | ACHN 36.5 µM | NCI-H23 29.3 µM | K562 32.8 µM | HT-29 15.8 µM | SF-295 78 µM | MDA-MB-435 28.6 µM | SK-MEL-28 24.8 µM | KM12 36.2 µM | HCC 2998 > 10 µM | SK-MEL-2 14.4 µM | BT-549 35.2 µM | A549 > 100 µM | SW-620 25.9 µM | OVCAR-3 15.1 µM

COC(=O)C(=O)CC(=O)c1cccc(OC)c1
inactive: UACC-62 > 100 µM | LOX IMVI > 100 µM | RPMI-8226 > 100 µM | Hs-578T > 100 µM | SNB-75 > 100 µM | ACHN > 100 µM | NCI-H23 > 100 µM | K562 > 100 µM | HT-29 > 100 µM | SF-295 > 100 µM | MDA-MB-435 > 100 µM | SK-MEL-28 > 100 µM | KM12 > 100 µM | HCC 2998 > 100 µM | BT-549 > 100 µM | A549 > 100 µM | SW-620 > 100 µM | OVCAR-3 > 100 µM

CC(C)(C)O/N=C/c1cc(NC(=S)c2ccccc2)ccc1Cl
inactive: UACC-62 14.6 µM | LOX IMVI 15.7 µM | RPMI-8226 11.5 µM | Hs-578T 22.5 µM | ACHN 16.4 µM | NCI-H23 15.6 µM | HT-29 13.7 µM | SF-295 18 µM | MDA-MB-435 27.2 µM | SK-MEL-28 14 µM | KM12 12.7 µM | HCC 2998 11.3 µM | SK-MEL-2 16.6 µM | BT-549 15.6 µM | A549 15.7 µM | SW-620 18.7 µM | OVCAR-3 16.3 µM

CN(C)c1c(Cl)c(=O)oc2c1ccc1nc(-c3ccccc3)sc12
inactive: UACC-62 64.6 µM | LOX IMVI > 100 µM | RPMI-8226 > 100 µM | Hs-578T > 100 µM | ACHN > 100 µM | NCI-H23 > 100 µM | K562 > 100 µM | HT-29 > 100 µM | SF-295 > 100 µM | MDA-MB-435 > 100 µM | SK-MEL-28 > 100 µM | KM12 > 100 µM | HCC 2998 > 100 µM | BT-549 > 100 µM | A549 > 100 µM | SW-620 > 100 µM | OVCAR-3 > 100 µM

CC(C)(C)C1CCC2c3c([nH]c4ccccc34)C3C(=O)N(c4ccccc4[N+](=O)[O-])C(=O)C3C2C1 (centres undefined)
inactive: UACC-62 12.2 µM | LOX IMVI 11.9 µM | RPMI-8226 17.5 µM | Hs-578T 14.4 µM | ACHN 9.1 µM | NCI-H23 8.34 µM | K562 11.9 µM | HT-29 4.32 µM | SF-295 12.3 µM | MDA-MB-435 19.1 µM | HCC 2998 4.14 µM | SK-MEL-2 14.9 µM | BT-549 21.7 µM | A549 7 µM | SW-620 11.5 µM | OVCAR-3 13 µM
